Test results: patent US20210238197A1, “NOVEL OXOQUINOLIZINE COMPOUNDS FOR THE TREATMENT AND PROPHYLAXIS OF BACTERIAL INFECTION” (Hoffmann-La Roche Inc., priority 2018, published 2021)
≈ marks a conversion by molar mass, not a printed value. Read-outs that look alike come from different tables or passages of the source.

Legend:
S. aureus (ATCC29213) = assay: 50% growth inhibitory concentration (IC50) determination assay, S. aureus; assay type: cell-based; settings: Iso-Sensitest broth, growth by OD 600 nm over 16 h, <0.098 = detection limit
How it was run: (§1)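 Compounds two-fold diluted from 50 to 0.097 μM (final) in Iso-Sensitest broth, inoculum ~5×10^5 CFU/mL. Incubation at 35±2 °C with OD600 read every 20 min over 16 h to track growth.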

[1] = test system: K. pneumoniae (ATCC10031); assay: 50% growth inhibitory concentration (IC50) determination assay, K. pneumoniae; assay type: cell-based; settings: Iso-Sensitest broth, growth by OD 600 nm over 16 h, <0.098 = detection limit
How it was run: as §1

[2] = Cytotoxicity assay (HepG2, CellTiter-Blue); assay type: cell-based; settings: human; HepG2 cells, 3 days treatment; >100 = detection limit
Experimental: (§2) The cytotoxicity of compounds of present invention was assessed by HepG2 assay. HepG2 cells (ATCC RB-8065™) were seeded into 96-well plates (1.2×10^4 cells per well) and treated with compounds for 3 days, cell viability was measured at day 3 post compound treatment using the CellTiter-Blue® Cell Viability Assay (Promega, Cat. No. G8082). […], of Cell titer blue buffer were added to each well of the cells, which were incubated for 3 hours at 37° C., and the fluorescence value was measured by a plate reader (Molecular Device SpectraMax M2). The CC50 value of each compound is plotted with GraphPad Prism using four parameter logistic equation.

[3] = Lyophilisation solubility assay (LYSA); assay type: physicochemical; settings: aqueous buffer, thermodynamic from solid; 0.05 M phosphate buffer, pH 6.5; <1.0 = detection limit
Experimental: The solubility of compounds of present invention was assessed by LYSA assay. Samples were prepared in duplicate from 10 mM DMSO stock solutions (20 μL) diluted in 30 μL pure DMSO. After evaporation of DMSO with a centrifugal vacuum evaporator, the residue was dissolved in 0.05 M phosphate buffer (150 μL, pH 6.5), which was stirred for one hour and shook for two hours. After one night, the solution was filtered using a microtiter filter plate. Then the filtrate and its 1/10 dilution were analyzed by HPLC-UV. In addition a four-point calibration curve was prepared from the 10 mM stock solutions and used for the solubility determination of the compounds.

A. baumannii (ATCC17978) = assay: 50% growth inhibitory concentration (IC50) determination assay, A. baumannii; assay type: cell-based; settings: Iso-Sensitest broth, growth by OD 600 nm over 16 h, <0.098 = detection limit
How it was run: as §1

[4] = Single dose PK study (SDPK) in female CD-1 mouse; assay type: in vivo; settings: IV bolus, 1.0 mg/kg solution; for clearance: plasma, read-out: CL total
Experimental: The single dose PK in female CD-1 mouse was performed to assess compound's pharmacokinetic properties. One group of animals were dosed via bolus intravenous (IV) of the respective compound. Blood samples (approximately 30 μL) were collected via saphenous vein at 5 mins, 15 min, 30 min, 1 hr, 2 hr, 4 hr and 7 hr. For last time point (24 hr), samples were collected via cardiac puncture while the mouse was under anesthesia. Blood samples were placed into tubes containing EDTA-K2 anticoagulant (2 μL of 0.5M per tube) and centrifuged at 3000 rpm for 10 minutes at 4° C. within half an hour to separate plasma from the samples. Following centrifugation, plasma samples were stored in polypropylene tubes, quick frozen over dry ice and kept at −70±10° C. until LC/MS/MS analysis. The pharmacokinetic parameters were calculated using non-compartmental module of WinNonlin® Professional 6.4.

[5] = test system: multiple species and strains; assay: microbe, parasite or virus in culture; set-up: MIC S9 / MIC S7 / MIC S11 / MIC S8 / MIC S10: unit not given beside the values
How it was run: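 Broth microdilution per CLSI M07-A10 in CAMHB, CAMHB+3% lysed horse blood or HTM. Inoculum was set to OD600 ~0.1, then diluted 1:280 (Gram-positive) or 1:400 (Gram-negative), and plates were incubated 18-24 h at 35±2° C in ambient air. MIC (μg/mL) is the lowest concentration giving no visible growth.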

HepG2 cells = assay: Cytotoxicity assay (HepG2, CellTiter-Blue); assay type: cell-based
Experimental: as §2

[6] = Staphylococcus aureus, ATCC29213
[7] = Klebsiella pneumoniae, ATCC10031
[8] = Acinetobacter baumannii, ATCC17978
[9] = Acinetobacter baumannii, ATCC19606, read-out: MIC S1, A. baumannii ATCC 19606
[10] = Acinetobacter baumannii, ATCC51432, read-out: MIC S2, A. baumannii ATCC 51432
[11] = Acinetobacter baumannii, ATCCBAA747, read-out: MIC S3, A. baumannii ATCC BAA-747
[12] = Escherichia coli, ATCC25922, read-out: MIC S11, E. coli ATCC 25922
[13] = Escherichia coli, ATCCBAA2340, read-out: MIC S10, E. coli ATCC BAA-2340
[14] = Klebsiella pneumoniae, ATCC10031, read-out: MIC S4, K. pneumoniae ATCC 10031
[15] = Klebsiella pneumoniae, ATCC700603, read-out: MIC S5, K. pneumoniae ATCC 700603
[16] = Klebsiella pneumoniae, ATCCBAA2146, read-out: MIC S6, K. pneumoniae ATCC BAA-2146
[17] = Pseudomonas aeruginosa, ATCC27853, read-out: MIC S7, P. aeruginosa ATCC 27853
[18] = Pseudomonas aeruginosa, ATCCBAA2113, read-out: MIC S8, P. aeruginosa ATCC BAA-2113

Compound	IC50 (S. aureus (ATCC29213); [6])	IC50 [1, 7]	CC50 at 3 days [2]	solubility thermodynamic [3]	IC50 (A. baumannii (ATCC17978); [8])	AUC total [4]	clearance [4]	MIC [5, 9]	MIC [5, 10]	MIC [5, 11]	MIC S9 ([5]; E. coli ATCC 35218)	MIC [5, 12]	MIC [5, 13]	MIC [5, 14]	MIC [5, 15]	MIC [5, 16]	MIC [5, 17]	MIC [5, 18]	further results
CNc1cc(F)c(F)c2c1[nH]c1ncc(-c3ccc4c(CN(C)C)cc(C(=O)O)c(=O)n4c3)c(N3CC[C@H]4CN(C)C[C@H]43)c12 (relative stereo) [Example 2.03, 7-[4-[cis-5-methyl-2,3,3a,4,6,6a-hexahydropyrrolo[2,3-c]pyrrol-1-yl]-5,6-difluoro-8-(methylamino)-9H-pyrido[2,3-b]indol-3-yl]-1-[(dimethylamino)methyl]-4-oxo-quinolizine-3-carboxylic acid]	194 nM	< 98 nM	46400 nM	> 1060 µg/mL	< 98 nM	–	–	–	–	–	–	–	–	–	–	–	–	–	–
CNc1cc(F)c(Cl)c2c1[nH]c1ncc(-c3ccc4ccc(C(=O)O)c(=O)n4c3)c(N3CC[C@]4(C[C@@H]4N)C3)c12 [Example 5.01D, 7-(4-((1S,3S)-1-amino-5-azaspiro[2.4]heptan-5-yl)-5-chloro-6-fluoro-8-(methylamino)-9H-pyrido[2,3-b]indol-3-yl)-4-oxo-4H-quinolizine-3-carboxylic acid]	< 98 nM	< 98 nM	> 100000 nM	–	< 98 nM	180 ng·h/mL	93 mL/min/kg	–	–	–	–	–	–	–	–	–	–	–	–
CNc1cc(F)c(C#N)c2c1[nH]c1ncc(-c3ccc4ccc(C(=O)O)c(=O)n4c3)c(N3CC[C@H]4CN(C)C[C@H]43)c12 [Example 1.14, 7-[4-[(3aS,6aS)-5-methyl-2,3,3a,4,6,6a-hexahydropyrrolo[2,3-c]pyrrol-1-yl]-5-cyano-6-fluoro-8-(methylamino)-9H-pyrido[2,3-b]indol-3-yl]-4-oxo-quinolizine-3-carboxylic acid]	< 98 nM	< 98 nM	15300 nM	–	< 98 nM	214 ng·h/mL	78.7 mL/min/kg	0.108 µg/mL (≈ 0.196 µM)	0.215 µg/mL (≈ 0.39 µM)	0.215 µg/mL (≈ 0.39 µM)	0.108	0.04 µg/mL (≈ 0.0725 µM)	0.215 µg/mL (≈ 0.39 µM)	0.027 µg/mL (≈ 0.049 µM)	1.72 µg/mL (≈ 3.13 µM)	0.86 µg/mL (≈ 1.56 µM)	0.86 µg/mL (≈ 1.56 µM)	1.72 µg/mL (≈ 3.13 µM)	–
CNc1cc(F)cc2c1[nH]c1nc(Oc3cnc(C)nc3)nc(N3C[C@H]4C[C@@H]3C[C@H]4N)c12 [GP-6, reference compound]	< 98 nM	< 98 nM	5600 nM	< 1 µg/mL	< 98 nM	126.2 ng·h/mL	132 mL/min/kg	0.339 µg/mL (≈ 0.78 µM)	0.339 µg/mL (≈ 0.78 µM)	0.169 µg/mL (≈ 0.389 µM)	0.169	0.127 µg/mL (≈ 0.292 µM)	1.36 µg/mL (≈ 3.13 µM)	< 0.021 µg/mL	1.36 µg/mL (≈ 3.13 µM)	2.71 µg/mL (≈ 6.25 µM)	0.678 µg/mL (≈ 1.56 µM)	1.36 µg/mL (≈ 3.13 µM)	–
7-(5-cyano-4-(cis-(4R)-4 (dimethylamino)-3,3a,4,5,6,6a-hexahydro-1H-cyclopenta[c]pyrrol-2-yl)-6-fluoro-8-(methylamino)-9H-pyrido[2,3-b]indol-3-yl)-4-oxo-4H-quinolizine-3-carboxylic acid [Example 1.12]	–	–	–	–	–	–	–	–	–	–	–	–	–	–	–	–	–	–	IC50 (S. aureus (ATCC29213)): < 98 nM; MIC S9 [5]: 0.541; MIC S1 ([5]; A. baumannii ATCC 19606): 1.082; MIC S2 ([5]; A. baumannii ATCC 51432): 0.541; MIC S3 ([5]; A. baumannii ATCC BAA-747): 0.541; MIC S11 ([5]; E. coli ATCC 25922): 0.203; MIC S10 ([5]; E. coli ATCC BAA-2340): 0.541; MIC S4 ([5]; K. pneumoniae ATCC 10031): 0.068; MIC S5 ([5]; K. pneumoniae ATCC 700603): 2.168; MIC S6 ([5]; K. pneumoniae ATCC BAA-2146): 4.335; MIC S7 ([5]; P. aeruginosa ATCC 27853): 1.082; MIC S8 ([5]; P. aeruginosa ATCC BAA-2113): 2.168; IC50 [1]: < 98 nM; CC50 (HepG2 cells): > 100000 nM; IC50 (A. baumannii (ATCC17978)): < 98 nM
